In US20130330396A1, “METHODS FOR THE TREATMENT OF THROAT DISCOMFORT” (INTERCONTINENTAL GREAT BRANDS LLC, priority 2009, published 2013):

Tests used:
[1] = Sensory evaluation of cooling agent-containing fondants (location, intensity, onset speed of cooling sensation); assay type: in vivo; details: for Long-lasting mouth cooling / Long-lasting throat cooling / Predominant mouth cooling / Predominant throat cooling: in fondant at 0.03, 0.06 and 0.09 weight percent, approx. 0.5 gram dissolved in the mouth, six evaluators
Experimental: The cooling agents N-ethyl-2,2-diisopropylbutanamide and N,2,3-trimethyl-2-isopropylbutanamide were evaluated in fondant at concentrations of 0.03, 0.06, and 0.09 weight percent. The fondant base consisted of 85 weight percent 6X fondant sugar and 15 weight percent deionized water.
Sensory evaluations of the cooling agent-containing fondants were conducted by six evaluators, who observed the location, intensity, and onset speed of cooling sensation as they tasted approximately 0.5 gram of fondant by allowing it to dissolve in the mouth.

[2] = Inventors' observations on bitterness and throat versus mouth cooling; details: in vivo
From the text: The present inventors have observed that N-ethyl-2,2-diisopropylbutanamide is a particularly effective for throat soothing. […] The structures of N-ethyl-2,2-diisopropylbutanamide and N,2,3-trimethyl-2-isopropylbutanamide, which differ only by two methylene (—CH2—) groups, are shown below.

[3] = menthol-containing lozenge; cited from earlier work

Structure (SMILES)	Long-lasting mouth cooling [1]	Long-lasting throat cooling [1]	Predominant mouth cooling [1]	Predominant throat cooling [1]	Throat cooling relative to N,2,3-trimethyl-2-isopropylbutanamide ([1]; when used in a candy system)	Location of cooling effect (throat versus mouth) [2]	Location of physiological cooling effect (throat versus mouth) [3]
CCNC(=O)C(CC)(C(C)C)C(C)C [Example 1, N-ethyl-2,2-diisopropylbutanamide]	No	Yes	No	Yes	superior and unexpected throat cooling	selectivity for throat cooling over mouth cooling	–
CNC(=O)C(C)(C(C)C)C(C)C [Example 2, N,2,3-trimethyl-2-isopropylbutanamide]	No	No	Yes	No	–	primarily in the mouth rather than the throat	–
CC1CCC(C(C)C)C(O)C1 (stereo not drawn) [menthol]	–	–	–	–	–	–	felt primarily in the mouth rather than the throat
